4 molecules from PubChem BioAssay AID624474 (Sanford-Burnham Center for Chemical Genomics, 2012) can be followed below.

As a reminder, the IC50 is the concentration at which inhibition is half-maximal.

The target of this test is Protein skinhead-1 (Caenorhabditis elegans) (UniProt P34707). Briefly: C. elegans SKN-1 blockade, concentration series – fluorescence ratio readout, dose response (AID 624474). The conditions noted are these: SKN-1 inhibitor fluorescence ratio assay.
Chain of Protein skinhead-1 (Caenorhabditis elegans) (P34707 whole entry, looked up): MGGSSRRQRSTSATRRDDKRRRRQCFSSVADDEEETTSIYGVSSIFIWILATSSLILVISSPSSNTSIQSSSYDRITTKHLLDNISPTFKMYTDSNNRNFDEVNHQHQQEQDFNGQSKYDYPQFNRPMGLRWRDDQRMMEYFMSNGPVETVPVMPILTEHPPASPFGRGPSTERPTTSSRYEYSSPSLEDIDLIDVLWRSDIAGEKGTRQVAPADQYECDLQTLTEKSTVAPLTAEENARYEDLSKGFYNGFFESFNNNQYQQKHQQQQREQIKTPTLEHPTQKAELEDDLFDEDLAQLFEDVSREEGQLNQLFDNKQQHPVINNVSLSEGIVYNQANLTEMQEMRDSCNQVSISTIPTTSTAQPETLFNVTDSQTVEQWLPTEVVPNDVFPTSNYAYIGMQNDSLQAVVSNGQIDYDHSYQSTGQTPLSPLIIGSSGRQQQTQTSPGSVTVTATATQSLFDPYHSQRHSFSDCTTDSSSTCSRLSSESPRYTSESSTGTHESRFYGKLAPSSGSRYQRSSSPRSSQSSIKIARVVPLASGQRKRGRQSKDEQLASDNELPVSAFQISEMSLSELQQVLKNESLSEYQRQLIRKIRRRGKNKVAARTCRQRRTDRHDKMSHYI

In the case of `COc1cc(CNC(C)(C)CO)cc(Br)c1OCc1ccc(Cl)cc1`, the IC50 is 19.5 µM.
In the case of `Clc1ccc(Cn2cc(Br)cn2)cc1Cl`, the IC50 was 30.6 µM.
Regarding `Brc1ccc(-c2nnc(-c3ccco3)o2)cc1`, the IC50 was 13.9 µM.
The figure for `O=C(/C=C/c1ccc(Br)cc1)c1ccc(NC2=NCCCS2)cc1` is 9.41 µM.
